Data published in patent publication US20250326757A1, “SOLID FORMS OF HETEROCYCLYLAMIDES AS IRAK4 INHIBITORS” (AstraZeneca AB, priority 2022, published 2025).

How the values were obtained:
[1] = format: physicochemical
Method: Amorphous Compound (I) (20 mg) was suspended in 2-propanol (800 μL) and stirred at room temperature for 2 weeks. The resultant solid was collected by filtration.

[2] = format: physicochemical; conditions: 70° C., low (11%) and high (75%) relative humidity, 21 days
Method: The physical and chemical stability of N-(Imidazo[1,2-b]pyridazin-3-yl)-6-methoxy-2-((1r,4r)-4-(N-methylacetamido)cyclohexyl)-2H-indazole-5-carboxamide Form A was further assessed under stressed conditions (elevated temperature (70° C.) at low (11%) and high (75%) relative humidity) over a period of 21 days according to standard protocols. Briefly, samples of Form A material were weighed into sample vials, the sample vials were placed in separate jars each containing a MadgeTech temperature and humidity logger and, in a separate vial, a saturated solution of either lithium chloride (to give 11% relative humidity) or sodium chloride (to give 75% relative humidity). The two jars (low/high humidity) were then sealed and placed in a calibrated oven at a temperature of 70° C. for a period of 21 days. Control samples were maintained in sealed vials in a refrigerator for the duration of the study.
Furthermore, XRPD confirmed that the physical form of the material over the course of the study was unchanged. It could thus be concluded that no chemical degradation of the samples or change in their physical form occurred on storage under stressed conditions. Accordingly, the suitability of N-(Imidazo[1,2-b]pyridazin-3-yl)-6-methoxy-2-((1r,4r)-4-(N-methylacetamido)cyclohexyl)-2H-indazole-5-carboxamide Form A for further development in pharmaceutical formulations was established.

## COc1cc2nn([C@H]3CC[C@H](N(C)C(C)=O)CC3)cc2cc1C(=O)Nc1cnc2cccnn12 [Form A, N-(Imidazo[1,2-b]pyridazin-3-yl)-6-methoxy-2-((1r,4r)-4-(N-methylacetamido)cyclohexyl)-2H-indazole-5-carboxamide Form A]
[1]
  Stability to prolonged storage under accelerated ageing conditions: stable
[2]
  Physical form by XRPD over the course of the study: unchanged
